According to article PMC9065678, “BI 1015550 is a PDE4B Inhibitor and a Clinical Drug Candidate for the Oral Treatment of Idiopathic Pulmonary Fibrosis” (Frontiers in Pharmacology, 2022):

Experiments:
PDE4C = target: T1, PDE4C (Homo sapiens, UniProt Q08493); test: Recombinant PDE activity, scintillation proximity assay: PDE4C; assay type: biochemical; conditions: substrate [3H]cAMP, means from n independent experiments, read-out: IC50 PDE4C2
T1 construct: made in house; host or cells: SF9 insect cells (baculovirus, Bac-To-Bac, pFastbac)
T1 sequence (Q08493 107-712): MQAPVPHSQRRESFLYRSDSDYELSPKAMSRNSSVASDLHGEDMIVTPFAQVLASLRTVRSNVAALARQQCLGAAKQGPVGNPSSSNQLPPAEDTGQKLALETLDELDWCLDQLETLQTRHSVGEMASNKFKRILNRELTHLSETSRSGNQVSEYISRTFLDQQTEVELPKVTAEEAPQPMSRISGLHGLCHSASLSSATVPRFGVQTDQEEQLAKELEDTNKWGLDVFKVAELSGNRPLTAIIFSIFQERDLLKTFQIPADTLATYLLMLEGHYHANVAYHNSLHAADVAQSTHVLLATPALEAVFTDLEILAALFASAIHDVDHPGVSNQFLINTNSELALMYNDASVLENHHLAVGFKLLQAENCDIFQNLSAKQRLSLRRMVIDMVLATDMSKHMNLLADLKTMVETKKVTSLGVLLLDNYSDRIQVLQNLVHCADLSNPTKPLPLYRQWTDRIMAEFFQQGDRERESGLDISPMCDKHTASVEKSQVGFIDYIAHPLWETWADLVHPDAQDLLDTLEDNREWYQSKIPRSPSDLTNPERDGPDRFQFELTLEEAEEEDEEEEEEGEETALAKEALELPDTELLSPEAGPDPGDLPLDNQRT
Procedure: (§1) For the preparation of human recombinant PDEs of interest, the Bac-To-Bac baculoviral expression system from Invitrogen (Carlsbad, CA, United States) was used according to the instruction manual. […] The plasmids were transformed into DH10Bac bacteria, SF9 insect cells were transfected with the bacmid DNA, and the resulting baculoviruses were stored and used for further rounds of infections. For protein production, SF9 cells were infected until a cytopathic effect was visible (after about 72 h), the SF9 cells were harvested and broken up by 3 freeze/thaw cycles, and by shearing 10 times through a 0.1 mm cannula using a syringe. […] The Phosphodiesterase Scintillation Proximity Assays (TRKQ7090 for [^3H]cAMP, GE Healthcare Europe GmbH, Chalfont St Giles, United Kingdom, and TRKQ7100 for [^3H]cGMP, Perkin Elmer, Waltham, MA, United States) were performed essentially according to the instruction manual. […] Assay solutions containing recombinant baculoviral-expressed PDE (to give an activity of 5.000–20.000 cpm corresponding to 5–20% of total activity added), 50 mmol/L Tris/HCl pH 7.5, 8.3 mmol/L MgCl2, 1.7 mmol/L EGTA, and 10 µL radiolabeled substrate (0.05 µCi in H2O) were incubated for 1 h at 30°C (final volume 100 μL).

PDE4D = target: T2, PDE4D (Homo sapiens, UniProt Q08499); test: Recombinant PDE activity, scintillation proximity assay: PDE4D; assay type: biochemical; conditions: human recombinant active site fragment, substrate [3H]cAMP, means from n independent experiments; read-out: IC50 PDE4D2
T2 construct: PDE4D NG_027957, AA 79–438; made in house; host or cells: SF9 insect cells (baculovirus, Bac-To-Bac, pFastbac)
T2 sequence (Q08499 381-740): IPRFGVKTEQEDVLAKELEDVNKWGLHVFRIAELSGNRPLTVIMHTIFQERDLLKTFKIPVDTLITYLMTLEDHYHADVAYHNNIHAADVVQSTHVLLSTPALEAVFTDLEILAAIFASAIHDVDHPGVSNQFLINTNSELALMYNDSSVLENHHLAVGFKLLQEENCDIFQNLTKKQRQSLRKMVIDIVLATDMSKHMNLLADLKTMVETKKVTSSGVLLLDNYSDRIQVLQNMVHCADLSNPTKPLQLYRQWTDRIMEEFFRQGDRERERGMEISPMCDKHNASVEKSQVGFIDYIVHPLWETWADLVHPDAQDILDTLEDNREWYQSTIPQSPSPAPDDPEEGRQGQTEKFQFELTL
Procedure: as §1

PDE4B = target: T3, PDE4B (Homo sapiens, UniProt Q07343); test: Recombinant PDE activity, scintillation proximity assay: PDE4B; assay type: biochemical; conditions: human recombinant active site fragment, substrate [3H]cAMP, means from n independent experiments; read-out: IC50 PDE4B2
T3 construct: PDE4B NG_029038: AA 152–484; made in house; host or cells: SF9 insect cells (baculovirus, Bac-To-Bac, pFastbac)
T3 sequence (Q07343 324-656): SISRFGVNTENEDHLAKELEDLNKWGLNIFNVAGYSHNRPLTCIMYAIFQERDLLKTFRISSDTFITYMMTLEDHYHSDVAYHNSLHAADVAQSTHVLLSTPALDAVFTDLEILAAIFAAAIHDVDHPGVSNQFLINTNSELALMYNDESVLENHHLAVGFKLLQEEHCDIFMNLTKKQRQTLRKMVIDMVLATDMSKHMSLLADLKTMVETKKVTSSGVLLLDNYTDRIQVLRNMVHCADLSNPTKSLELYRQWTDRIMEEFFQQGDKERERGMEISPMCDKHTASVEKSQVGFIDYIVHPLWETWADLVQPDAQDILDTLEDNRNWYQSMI
Procedure: as §1

PDE4A = target: T4, PDE4A (Homo sapiens, UniProt P27815); test: Recombinant PDE activity, scintillation proximity assay: PDE4A; assay type: biochemical; conditions: substrate [3H]cAMP, means from n independent experiments
T4 construct: PDE4A (NG_029594, AA 156–886); made in house; host or cells: SF9 insect cells (baculovirus, Bac-To-Bac, pFastbac)
T4 sequence (P27815 156-886): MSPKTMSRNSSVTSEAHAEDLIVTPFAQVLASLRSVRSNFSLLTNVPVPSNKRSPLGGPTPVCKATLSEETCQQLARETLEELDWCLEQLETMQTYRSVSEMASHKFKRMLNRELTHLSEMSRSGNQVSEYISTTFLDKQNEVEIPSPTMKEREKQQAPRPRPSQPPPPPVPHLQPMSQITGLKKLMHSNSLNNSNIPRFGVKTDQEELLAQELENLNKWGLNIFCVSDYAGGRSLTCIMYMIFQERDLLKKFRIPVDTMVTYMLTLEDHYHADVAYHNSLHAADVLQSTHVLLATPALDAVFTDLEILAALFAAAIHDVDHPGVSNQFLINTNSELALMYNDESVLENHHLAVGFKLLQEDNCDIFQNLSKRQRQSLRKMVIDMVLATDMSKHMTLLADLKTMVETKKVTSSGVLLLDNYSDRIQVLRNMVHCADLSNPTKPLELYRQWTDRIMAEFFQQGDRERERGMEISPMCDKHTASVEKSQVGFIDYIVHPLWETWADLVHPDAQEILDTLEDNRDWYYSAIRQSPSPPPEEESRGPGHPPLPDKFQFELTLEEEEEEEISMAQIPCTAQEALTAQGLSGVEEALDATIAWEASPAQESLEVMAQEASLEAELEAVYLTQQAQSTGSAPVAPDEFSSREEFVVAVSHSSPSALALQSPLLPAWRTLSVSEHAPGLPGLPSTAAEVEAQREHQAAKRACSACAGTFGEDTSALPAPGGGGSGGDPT
Procedure: as §1

[1] = system: LPS-induced neutrophil influx into the BALF; test: LPS-induced neutrophil influx into the BALF of Suncus murinus; assay type: in vivo; conditions: Neutrophil, oral, 30 min before nebulized LPS, read-out: ED50 LPS-induced BALF neutrophils
Description: (§2) Compared with other animal species used to study emesis induction by PDE4 inhibitors, like ferrets, dogs, minipigs, or monkeys, Suncus murinus allows the testing of a sufficient number of animals to provide a high statistical power. […] Male Suncus murinus (weight 50–55 g) from Boehringer Ingelheim (Biberach an der Riss, Germany) or male Wistar rats (200–250 g, Charles River), eight animals per group, were used. […] For this purpose, animals in the positive control and treatment groups were put into a circular Plexiglas chamber with 16 pie-like compartments for one animal each, and were consecutively exposed to nebulized LPS for 30 min. The LPS solution used for nebulization contained 1 mg/mL LPS in phosphate-buffered saline (PBS). Nebulization was performed with the commercially available PARI Master® nebulizer with a PARI Master® LL adapter (Pari GmbH, Starnberg, Germany). 4 h after LPS exposure, the animals were anesthetized and euthanized by cervical dislocation. After sacrifice, the trachea was cannulated and bronchoalveolar lavage was performed by instilling and re-aspirating two-times 1 mL (Suncus murinus) or 5 mL (rat) lavage buffer (PBS +2% bovine serum albumin). BALF volumes were recorded manually. Determination of neutrophil numbers in BALF was performed using a blood hemacytometer (Sysmex XT-1800i, Kobe, Japan).

[2] = system: LPS-induced lung neutrophil influx; test: LPS-induced lung neutrophil influx in male Wistar rats; assay type: in vivo, rat; conditions: Rattus norvegicus, Neutrophil, oral, data not shown
Description: as §2

Suncus murinus = test: Determination of emesis in male Suncus murinus; assay type: in vivo
Procedure: All animals (50–55 g) were dosed orally by gavage immediately before transfer to whole-body plethysmography boxes. The volume of application was set to 10 mL/kg body weight. For assessment of the emetic events, animals were placed in the whole-body plethysmography boxes without any access to feed or water for 3 h. The whole-body plethysmography system used to detect emetic events consisted of five major components: 1) plethysmography boxes for mice (Buxco®, PLY 3211-F, Data Sciences International, New Brighton, MN, United States), 2) a pressure transducer with an amplifier, 3) a bias flow regulator, 4) a PC-based system to receive and process the amplified signals, and 5) a PC-based data acquisition system (NOTOCORD-hem™, Instem, Stone, United Kingdom) to process signals, as well as in-house-developed software to detect and identify changes in breathing pattern. Retching and vomiting induced characteristic changes in the breathing pattern of animals and these were recorded by whole-body plethysmography and translated for NOTOCORD recording. A number of preset definitions (computer-based criteria) characteristic for emetic events were determined. Peaks that met the set internal computer-based criteria and exceeded the threshold of more than 600 mV were labeled as emetic events by the system on a standard basis.

IPF-LF cells = test: bFGF plus IL-1β-induced proliferation of IPF lung fibroblasts (bromodeoxyuridine assay); assay type: cell-based; conditions: Homo sapiens, Fibroblast, read-out: Inhibition of proliferation
Procedure: (§3) Fibroblasts from donors with IPF (IPF-LF) (Asterand, Detroit, MI, United States) were grown in fibroblast basal medium (CC-3131, Lonza Walkersville, Inc., Walkersville, MD, United States) supplemented with FGM-2 SingleQuot Kit Supplements and Growth Factors (CC-4126, Lonza). Cells were grown in a humidified incubator at 37°C and 5% CO2. All assays were performed at passage 7 or 8. For assay set-up, cells were seeded in fibroblast growth medium plus supplements in assay-relevant densities. For TGF-β-stimulated assays, cells were seeded at 4,500 cells per well in 96-well plates. Proliferation assays were performed in 96-well plates at an initial seeding cell density on day 0 of 2,000 cells per well. After 24-h, the cell culture medium was changed to starvation medium (fibroblast basal medium without supplements). After a 24-h starvation period, cells were pre-incubated for 30 min with different concentrations of BI 1015550 plus/minus different concentrations of nintedanib and/or 1 nmol/L PGE2 and stimulated with the assay-relevant stimulus for the indicated time in the presence of the compound.
IPF-LF cells were stimulated with bFGF (20 ng/mL) plus IL-1β (30 pg/mL). After 72 h of stimulation, 10-times concentrated bromodeoxyuridine was added and the cells were incubated for another 18 h (final concentration bromodeoxyuridine 10 μmol/L). Cell proliferation was assessed by bromodeoxyuridine assay (Roche, Mannheim, Germany) according to the instruction manual.

α-SMA protein expression = α-SMA protein expression of TGF-β-stimulated IPF lung fibroblasts (Western blot replacement assay); assay type: cell-based, human; conditions: alone, up to the highest concentration of 100 nmol/L
Procedure: as §3
For determination of α-SMA protein expression, IPF-LF cells were stimulated with TGF-β (4 ng/mL) for 48 h. Lysates were assayed in a Western blot replacement assay (MSD). In short, lysates were pipetted onto high binding plates (MSD) and were sequentially incubated with a mouse anti-human α-SMA antibody (Sigma Aldrich) and an anti-mouse sulfo-tag antibody (MSD). For analysis, an MSD sector imager was used.

Question: With `O=C(Nc1c(Cl)c[n+]([O-])cc1Cl)c1ccc(OC(F)F)c(OCC2CC2)c1` [Roflu-N-Ox, roflumilast N-oxide, reference compound] as the compound, how does the IC50 (PDE4C) read?
Answer: 15 nM

Question: And the IC50 (PDE4D)?
Answer: 1.4 nM

Question: What about the IC50 (PDE4B) of the same compound?
Answer: 1.4 nM

Question: What about the IC50 (PDE4A) of the same compound?
Answer: 2.8 nM

Question: Which ED50 [1] does the source give for `O=C(Nc1c(Cl)cncc1Cl)c1ccc(OC(F)F)c(OCC2CC2)c1` [Roflumilast, roflumilast, reference compound] here?
Answer: 1 mg/kg

Question: What about the ED50 [2] of the same compound?
Answer: 1 mg/kg

Question: And the Animals showing emesis (Suncus murinus; 10 × ED50 oral (BI 1015550 6 mg/kg, roflumilast 10 mg/kg))?
Answer: 10/24

Question: What about the “% of vomiting animals, emesis at 10 × ED50” value (Suncus murinus; oral (BI 1015550 6 mg/kg, roflumilast 10 mg/kg), 24 animals) of the same compound?
Answer: 42%

Question: With `COC(=O)c1ccc2c(c1)NC(=O)/C2=C(\Nc1ccc(N(C)C(=O)CN2CCN(C)CC2)cc1)c1ccccc1` [Nintedanib, nintedanib, reference compound] as the compound, how does the inhibition at 0.1 µM (IPF-LF cells) read?
Answer: 15%

Question: What about the “Inhibitory effect on α-SMA protein expression” value (α-SMA protein expression) of the same compound?
Answer: no inhibitory effect
